The record followed here is patent US20260226049A1, “NITROGEN-CONTAINING HETEROCYCLIC COMPOUND, PREPARATION METHOD THEREFOR, AND USE THEREOF” (BIVISION PHARMACEUTICALS, INC, priority 2023, published 2026).

For orientation: pIC50 means the IC50 on a negative log10 scale, so that one unit is a factor of ten.

Test [1] concerns HT1080 cell line with high FAP expression. Kind of test: Therapeutic experiment of ^177Lu-labeled compounds in tumor-bearing mice. In kind it is in vivo, Balb/c Nude mice. The conditions noted are these: ^177Lu-labeled compound. How it is done: Balb/c Nude tumor-bearing mice (supplier: Shanghai Alamo Pharmaceutical Technology Co., Ltd., HT1080 cell line with high FAP expression) aged approximately 6-8 weeks were randomly assigned to 13 experimental groups based on tumor volume, with 5 mice per group. Animal body weight and tumor size were measured, and administration was initiated on the grouping day starting with Group 1 (control group: normal saline). General health and appearance were observed daily after the start of the experiment. Animal body weight and tumor size were measured before each sample collection time point. Any abnormal observations detected during the entire study period were required to be recorded in the raw data.
The synthesized compounds were labeled with ^177Lu and subsequently utilized in the therapeutic assay on mouse tumor models. […] Furthermore, no significant changes in mouse body weight (FIG. 8) were observed throughout the experimental period.
• TGI^TV: Relative tumor inhibition rate (TGI^TV): TGI^TV (%)=[1−(Ti−T0)/(Vi−V0)]×100%; • (Ti: average tumor volume of the treatment group on day i of administration, TO: average tumor volume of the treatment group on day 0 of administration; Vi: average tumor volume of the solvent control group on day i of administration, V0: average tumor volume of the solvent control group on day 0 of administration) • T/C: T/C % is one of the most commonly used indicators for tumor response to treatment: T/C %=T/C*100%; • (T represents the average tumor volume of the treatment group at a specific time point; C represents the average tumor volume of the control group at a specific time point.)
The differences between the treatment groups (tumor volumes of the second, third, fourth, and fifth groups) and the control group (tumor volume of the first group) and between the tumor volumes of the first, third, fourth, and fifth groups and the tumor volume of the second group were analyzed using the two-way ANOVA Fisher's LSD test method. P-values less than 0.05 were considered statistically significant. Both statistical significance and biological significance were taken into account during the result analysis.

Test [2] deals with T1, recombinant human prolyl oligopeptidase (PREP) (Homo sapiens, UniProt P48147).
T1 sequence (P48147 1-710): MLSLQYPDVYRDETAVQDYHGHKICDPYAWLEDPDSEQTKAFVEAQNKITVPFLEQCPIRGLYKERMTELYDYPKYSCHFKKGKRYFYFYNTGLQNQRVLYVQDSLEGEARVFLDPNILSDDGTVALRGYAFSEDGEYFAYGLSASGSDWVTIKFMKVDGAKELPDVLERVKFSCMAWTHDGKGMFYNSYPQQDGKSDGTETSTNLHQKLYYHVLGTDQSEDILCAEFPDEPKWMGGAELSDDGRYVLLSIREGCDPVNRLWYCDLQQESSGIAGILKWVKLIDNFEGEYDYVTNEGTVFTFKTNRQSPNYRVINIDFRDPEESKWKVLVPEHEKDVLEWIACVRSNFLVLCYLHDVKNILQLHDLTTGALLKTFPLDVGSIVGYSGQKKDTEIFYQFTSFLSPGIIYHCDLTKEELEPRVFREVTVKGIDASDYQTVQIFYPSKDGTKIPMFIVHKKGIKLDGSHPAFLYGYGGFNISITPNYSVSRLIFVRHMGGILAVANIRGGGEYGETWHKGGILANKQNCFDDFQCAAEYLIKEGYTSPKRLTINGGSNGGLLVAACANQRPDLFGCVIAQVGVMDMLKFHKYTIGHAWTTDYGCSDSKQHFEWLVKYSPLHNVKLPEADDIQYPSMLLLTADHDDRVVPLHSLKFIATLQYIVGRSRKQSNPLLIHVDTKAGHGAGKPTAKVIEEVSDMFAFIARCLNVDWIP
Kind of test: Selective assay, protease inhibition (PREP). The class given is biochemical. Conditions: substrate Z-Gly-Pro-AMC. As to the method:
The specificity of the synthesized compounds against recombinant human dipeptidyl peptidase IV (DPPIV), fibroblast activation protein (FAP), or prolyl oligopeptidase (PREP) was expressed by their half-maximal inhibitory concentration (IC50) against the proteases.
1) The synthesized compound was dissolved in DMSO to a final concentration of 100 mM.
c) For PREP assay: The test compound was diluted to a 1 mM solution using a 140 mM NaCl buffer at pH 8.0.
2) The prepared 1 mM test compound solution was serially diluted (1:10) into a row of a 96-well plate using the corresponding buffer mentioned above.
3) The substrate was prepared as a DMSO stock solution (FAP and PREP: 2.5 mM Z-Gly-Pro-AMC (VWR, Cat. No. I-1145.0050BA) in DMSO; DPPIV: 100 mM Gly-Pro-AMC (VWR, Cat. No. 100042-646) in DMSO), and subsequently the substrate stock solution was diluted 20-fold using the corresponding buffer mentioned above.
4) The enzyme was diluted into the appropriate assay buffer. The final concentrations of DPPIV, FAP, and PREP were […], respectively. To each required well in columns 2-10, 180 μL was added separately. Column 1 (A, B, C) was prepared with 200 μL of the appropriate assay buffer as a control. Column 1 (D, E, F, G, H) was prepared using 20 μL of appropriate assay buffer and 180 μL of enzyme as an inhibitor-free control. […]
7) Fluorescence was measured at λex: 380, λem: 460. […]

pIC50: −log10 of the molar value. Bounds are passed on as bounds.

In the case of `N#C[C@@H]1CC(F)(F)CN1C(=O)CNC(=O)c1cccc2c1CCN(C(=O)CCC(=O)NCCNC(=O)CCC(C(=O)O)N1CCN(CC(=O)O)CCN(CC(=O)O)CCN(CC(=O)O)CC1)C2` (some centres unmarked) [JHH5], the “therapeutic effects in mouse tumor model” value in test [1] is given as “dose-dependent therapeutic effects”. Besides, in test [2], the negative-log IC50 (pIC50) was < 6.00.
